According to PMC3544981 (Pharmacology, biochemistry, and behavior, 2012):
Values joined by “and” are separate entries in the source; they are usually repeats but may differ in a detail not shown here. Equal entries are not always repeated. Where two headings read alike, the source gives them in different places.

Key:
α4β2*-nAChR = α4β2*-nAChR (Mus musculus, UniProt O70174+Q9ERK7); type: biochemical
α4β2*-nAChRs [1] = biological target: T1, α4β2*-nAChRs (Mus musculus, UniProt O70174+Q9ERK7, V287L); type: biochemical
α4β2*-nAChRs [2] = biological target: T2, α4β2*-nAChRs (Mus musculus, UniProt O70174+Q9ERK7); type: biochemical
α6β2*-nAChR [3] = biological target: α6β2*-nAChR (Mus musculus, UniProt Q9ERK7+Q9R0W9)
α6β2*-nAChR [4] = biological target: α6β2*-nAChR (Mus musculus, UniProt Q9ERK7+Q9R0W9, V287L); conditions: striatum, MT mice
α4S248F mutation = conditions: 2007, cited from earlier work
α4β2*-nAChRs [5] = biological target: T1, α4β2*-nAChRs
α4β2*-nAChRs [6] = biological target: T2, α4β2*-nAChRs
[7] = biological target: α4β2*-nAChR binding sites; experiment: [125I]-Epibatidine binding to membrane fragments, thalamus; design: species or system mouse; conditions: read-out: Kd for [125I]-epibatidine, HT mice
[8] = biological target: T3, α4β2*-nAChR binding sites (Mus musculus, UniProt O70174+Q9ERK7); experiment: as above; conditions: read-out: Kd for [125I]-epibatidine, WT mice
[9] = biological target: T4, α4β2*-nAChR binding sites (Mus musculus, UniProt O70174+Q9ERK7, V287L); experiment: as above; conditions: read-out: Kd for [125I]-epibatidine, MT mice
[10] = biological target: α4β2*-nAChR binding sites; experiment: [125I]-Epibatidine binding to membrane fragments, cortex; design: species or system mouse; conditions: read-out: Kd for [125I]-epibatidine, HT mice
[11] = biological target: T3, α4β2*-nAChR binding sites; experiment: as above; conditions: read-out: Kd for [125I]-epibatidine, WT mice
[12] = biological target: T4, α4β2*-nAChR binding sites; experiment: as above; conditions: read-out: Kd for [125I]-epibatidine, MT mice
β2VL mice [13] = conditions: mouse, in vivo, ip, 5 mg/kg
β2VL mice [14] = conditions: male, mouse, in vivo, ip, 2 mg/kg
[15] = β2VL knock-in, homozygous mutant (MT)

T3 sequence (Q9ERK7 26-501): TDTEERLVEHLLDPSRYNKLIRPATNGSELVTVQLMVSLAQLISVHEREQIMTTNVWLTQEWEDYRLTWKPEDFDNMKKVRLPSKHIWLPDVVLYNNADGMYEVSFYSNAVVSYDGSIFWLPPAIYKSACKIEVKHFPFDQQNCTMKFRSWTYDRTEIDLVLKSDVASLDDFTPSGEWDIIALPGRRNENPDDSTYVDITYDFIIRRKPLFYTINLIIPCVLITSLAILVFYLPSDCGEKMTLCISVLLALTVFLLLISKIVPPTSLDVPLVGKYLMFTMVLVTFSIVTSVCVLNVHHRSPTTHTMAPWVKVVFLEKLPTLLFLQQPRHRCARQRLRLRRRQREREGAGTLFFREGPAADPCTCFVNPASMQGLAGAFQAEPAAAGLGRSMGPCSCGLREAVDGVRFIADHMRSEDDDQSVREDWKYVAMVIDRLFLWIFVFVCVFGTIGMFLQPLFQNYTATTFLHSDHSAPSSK
T3 sequence (O70174 31-629): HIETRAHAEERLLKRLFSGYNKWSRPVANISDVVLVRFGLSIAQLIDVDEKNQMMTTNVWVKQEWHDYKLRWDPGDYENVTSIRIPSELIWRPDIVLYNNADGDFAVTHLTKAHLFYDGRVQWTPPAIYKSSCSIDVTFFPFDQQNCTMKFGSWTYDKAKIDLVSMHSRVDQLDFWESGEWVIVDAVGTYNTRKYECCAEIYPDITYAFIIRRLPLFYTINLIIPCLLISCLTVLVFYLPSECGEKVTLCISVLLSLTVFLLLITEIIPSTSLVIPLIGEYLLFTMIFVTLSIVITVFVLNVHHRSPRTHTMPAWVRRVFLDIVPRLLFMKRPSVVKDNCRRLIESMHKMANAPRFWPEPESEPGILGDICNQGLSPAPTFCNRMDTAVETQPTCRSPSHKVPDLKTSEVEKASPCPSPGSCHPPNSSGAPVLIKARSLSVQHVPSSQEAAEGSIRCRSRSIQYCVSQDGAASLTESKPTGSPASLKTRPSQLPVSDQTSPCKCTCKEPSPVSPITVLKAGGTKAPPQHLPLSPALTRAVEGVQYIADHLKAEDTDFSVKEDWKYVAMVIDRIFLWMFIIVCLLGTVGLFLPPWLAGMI
T1 sequence (O70174 31-629): as above
T1 sequence (Q9ERK7 26-501 V287L): as the sequence (Q9ERK7 26-501) above, with V262L counted along it
T4 sequence (O70174 31-629): as the sequence (O70174 31-629) above
T4 sequence (Q9ERK7 26-501 V287L): as the sequence (Q9ERK7 26-501) above, with V262L counted along it
Chain of α4β2*-nAChR (O70174 31-629): as the sequence (O70174 31-629) above
Chain of α4β2*-nAChR (Q9ERK7 26-501): as the sequence (Q9ERK7 26-501) above
Chain of α6β2*-nAChR (Mus musculus, UniProt Q9ERK7+Q9R0W9, V287L) (Q9R0W9 31-494): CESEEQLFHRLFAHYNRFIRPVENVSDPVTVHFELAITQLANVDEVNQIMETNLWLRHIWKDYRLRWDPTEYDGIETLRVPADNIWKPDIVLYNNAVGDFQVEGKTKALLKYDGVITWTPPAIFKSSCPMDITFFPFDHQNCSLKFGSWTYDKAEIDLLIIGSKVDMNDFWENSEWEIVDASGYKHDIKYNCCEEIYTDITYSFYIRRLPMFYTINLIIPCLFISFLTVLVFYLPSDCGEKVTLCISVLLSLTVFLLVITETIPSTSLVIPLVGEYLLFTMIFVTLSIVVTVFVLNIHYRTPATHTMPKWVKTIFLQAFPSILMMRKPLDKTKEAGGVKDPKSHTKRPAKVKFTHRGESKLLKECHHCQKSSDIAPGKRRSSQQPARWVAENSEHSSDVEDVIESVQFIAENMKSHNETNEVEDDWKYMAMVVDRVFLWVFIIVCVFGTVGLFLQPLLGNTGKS
Chain of α6β2*-nAChR (Mus musculus, UniProt Q9ERK7+Q9R0W9, V287L) (Q9ERK7 26-501 V287L): as the sequence (Q9ERK7 26-501) above, with V262L counted along it

## CC(=O)OCC[N+](C)(C)C [ACh, acetylcholine iodide]
α4β2*-nAChR
  control ACh-stimulated 86Rb+ efflux: 5.64±1.43 and 3.35±0.47
α4β2*-nAChRs [1]
  maximum ACh-stimulated [3H]-GABA release: 2.64±0.13
α4β2*-nAChRs [2]
  maximum ACh-stimulated [3H]-GABA release: 3.31±0.24 and 3.69±0.19
  reduction in maximal ACh-stimulated [3H]-GABA release: 20%
α6β2*-nAChR [3]
  decrease in the α-CtxMII sensitive [3H]-dopamine release: 23%
  α-CtxMII-sensitive maximal [3H]-dopamine release: 3.31±0.30
α6β2*-nAChR [3]; striatum, WT mice
  α-CtxMII-sensitive maximal [3H]-dopamine release: 4.82±0.30
α6β2*-nAChR [4]
  α-CtxMII-sensitive maximal [3H]-dopamine release: 3.73±0.29
α4S248F mutation; α4S248F HT mice ref Teper et al.
  decrease in maximal ACh-stimulated [3H]-GABA release: 60%
α4S248F mutation; α4S248F MT mice ref Teper et al.
  decrease in maximal ACh-stimulated [3H]-GABA release: 80%
α4β2*-nAChRs [5]
  maximum ACh-stimulated [3H]-GABA release: 2.11±0.14
α4β2*-nAChRs [6]
  decrease in EC50, ACh-stimulated [3H]-GABA release: approximately 10 fold
  maximum ACh-stimulated [3H]-GABA release: 1.96±0.17 and 2.25±0.16
  reduction in maximal ACh-stimulated [3H]-GABA release: 0%

## Ic1ccc(C2CC3CCC2N3)cn1 (stereo not shown) [[^125I]-epibatidine]
[7]
  Kd: 0.08 ± 0.01 nM
[8]
  Kd: 0.15 ± 0.06 nM
[9]
  Kd: 0.11 ± 0.03 nM
[10]
  Kd: 0.12 ± 0.02 nM
[11]
  Kd: 0.15 ± 0.03 nM
[12]
  Kd: 0.13 ± 0.02 nM

## CN1CCC[C@H]1c1cccnc1 [nicotine]
β2VL mice [13]
  interval from DAC to spike-wave seizure with tonic-clonic convulsions: 2 to 3 min
  time to tonic-clonic convulsion with EEG spike-wave discharges post-injection: 3~4 min
β2VL mice [14]
  mice displaying diagonal retrograde tail: 2/19
  mice displaying tonic forelimb digit splaying: 1/19
  mice displaying tonic forelimb extension: 1/19
  mice exhibiting forelimb clonus: 0/19
  post-injection latency for onset of diagonal retrograde tail: 31 ± 8 s
β2VL mice [14]; [15]
  mice displaying diagonal retrograde tail: 19/19
  mice displaying tonic forelimb digit splaying: 16/19
  mice displaying tonic forelimb extension: 18/19
  mice exhibiting forelimb clonus: 12/19
  post-injection latency for onset of forelimb clonus: 59 ± 7 s
  post-injection latency for onset of tonic digit splaying: 59 ± 6 s
  post-injection latency for onset of tonic forelimb extension: 57 ± 5 s
